The results in this text go back to patent EP2012764B1, “PHARMACEUTICAL COMBINATION COMPRISING 3-(3-DIMETHYLAMINO-1-ETHYL-2-METHYL-PROPYL) -PHENOL AND PARACETAMOL” (Grünenthal GmbH, priority 2006, dated 2007).

The experiment relates to inflammatory pain. The experiment in a line: Randall-Selitto test in rats (carrageenin-induced paw oedema, pressure at vocalisation, %MPE; isobolographic analysis). Type of experiment: in vivo, rat. As for the experimental part:
The weight ratios of the components (a) and (b) that will lead to a supra-additive effect (synergistic effect) of the inventive pharmaceutical composition may be determined via the test of Randall and Selitto as described in Arch. Int. Pharmacodyn., 1957, 111: 409 to 419, which is a model for inflammatory pain. The respective part of the literature is hereby incorporated by reference and forms part of the present disclosure.
By means of injection of 0.1 ml of Carrageenin-suspension ventrally into a hind paw of a rat an oedema is induced, on which pain is generated 4 hours later by continuously increasing pressure with a stamp (2 mm tip diameter). The antinociceptive and antihyperalgesic activity of the tested substance is determined at different points in time after administration of the substance. The measured value to be determined and at the same time also the end point of the pain test is the pressure at which the vocalisation reaction of the rat occurs. The percentage maximum possible effect (%MPE) is calculated. The maximum pressure of the stamp is 250 g. The group size is n = 10.
The interactions studies presented herein were performed using equieffective doses of the two components, calculated from the ratio of the respective ED50 values of the components if administered alone.
The application route was intravenous (i.v.) for (1R,2R)-3-(3-Dimethylamino-1-ethyl-2-methyl-propyl)-phenol (A) and intraperitoneal (i.p.) for Paracetamol. […] According to their respective timepoint of peak effect, (1R,2R)-3-(3-Dimethylamino-1-ethyl-2-methyl-propyl)-phenol was applied 15 min and Paracetamol 120 min before timepoint of measurement of the interaction-experiments (i. e. Paracetamol was applied 105 min before (1R,2R)-3-(3-Dimethylamino-1-ethyl-2-methyl-propyl)-phenol, respectively). Thus, the time point of ED50 calculation of the combination corresponds to the timepoint of the peak effect of the respective compound.

In the case of `CC[C@@H](c1cccc(O)c1)[C@@H](C)CN(C)C` [A, (1R,2R)-3-(3-Dimethylamino-1-ethyl-2-methyl-propyl)-phenol], the “timepoint of peak effect” value (A alone, i.v., timepoint of first measurement) stood at 15 min p. appl.

Take `CC(=O)Nc1ccc(O)cc1` [Paracetamol]: the “timepoint of peak effect” value (Paracetamol alone, i.p.) amounted to 120 min p. appl. Further, under “Paracetamol alone, i.p., 120 min p. appl. (peak effect), rat, n = 10, 120 min”, the “ED50 (confidence interval)” value is on record as 189,9 (181,3-198,4) mg/kg. Further, the 50% effective dose (ED50) (Rattus norvegicus, ip, 2 h, Paracetamol alone, i.p., 120 min p. appl. (peak effect), rat, n = 10, read-out: ED50 (confidence interval)) was 190 mg/kg.
